This is an account of results in the METLIN SMRT retention time set (Domingo-Almenara et al. 2019).

Structures are written as SMILES.

The data set can be described thus: gradient 5% acetonitrile 3 min, to 50% in 2 min, to 85% in 15 min, held 3 min, 100 µL/min. As to conditions: column: Zorbax Extend-C18 2.1 x 50 mm; eluents: water / acetonitrile, 0.1% formic acid. A digest of the protocol: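 Mixtures of ~100 pure standards were chromatographed on a Zorbax Extend-C18 column (2.1 × 50 mm, 1.8 μm) at 100 μL/min using water and acetonitrile, each with 0.1% formic acid. Detection used a quadrupole time-of-flight mass spectrometer in positive and negative ionization mode, and data collection spanned 3 months. Retention time was obtained from adduct peaks picked computationally and each checked manually.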
On to `CCCOc1ccc(C(=O)Nc2cnn(CC)c(=O)c2N2CCOCC2)cc1`, for which the RP-LC retention time is 954 s.
On to `CCC(=O)N1CCc2c(c(C(=O)N3CCC(C(=O)NCc4ccc(OC)cc4)CC3)nn2C)C1`, for which the RP-LC retention time turned out to be 640 s.
For the molecule `O=C(Cn1nc2n(c1=O)CCCCC2)Nc1ccccc1C(F)(F)F`, the RP-LC retention time worked out at 713 s.
The same measure for `COc1cccc(N2CCN(C(=O)c3cc4sccc4n3C)CC2)c1`: 988 s.
Under `Cn1nc(-c2nnc(-c3ccc(F)cc3)o2)c2c1CCN(S(=O)(=O)c1ccc(Cl)cc1)C2` stands 1020 s; under `c1ccc(N2CCN(c3ncnc4scc(-c5cccs5)c34)CC2)cc1`, 1250 s; under `Clc1cccc(CN2CCc3nc(N4CCN(c5ccccc5)CC4)ncc3C2)c1`, 775 s.
The same measure for `O=C(CN1CCCCC1c1nc(-c2cccc(F)c2)no1)NCc1cccs1` (centres undefined): 1060 s; for `C=CCn1c(=O)c2ccccc2n(Cc2nc(-c3cccc(OCC)c3)no2)c1=O`: 1100 s.
The molecule `COCCN1C(=O)c2cccn2CC1CNC(=O)Cc1c(C)noc1C` (centres undefined) showed an RP-LC retention time of 610 s.
The same measure for `COc1cccc(-c2noc(-c3nn(-c4ccc(F)c(F)c4)ccc3=O)n2)c1OC`: 796 s; for `CCC(C(=O)NCCOC)n1nc(C)c2nn(-c3ccccc3)c(C)c2c1=O` (centres undefined): 763 s; for `CNC(=O)N1CCCN(S(C)(=O)=O)C(c2ccccc2)CC(=O)NCC1` (centres undefined): 616 s.
The same measure for `O=C(Cc1ccc(Br)cc1)N1CCN(C(=O)c2cc(-c3ccncc3)n[nH]2)CC1`: 622 s; for `O=C(NCC1CN(c2ccc3c(c2)OCO3)C(=O)O1)c1ccccc1C(F)(F)F` (centres undefined): 880 s; for `CCc1ccc(NC(=O)Nc2cccn3nc(C)nc23)cc1`: 869 s.
The same measure for `O=C(c1ccc(F)c(Cl)c1)N1CCC(n2c(-c3ccco3)nc3cccnc32)C1` (centres undefined): 800 s; for `CCOc1ccc(-c2[nH]ncc2CNS(=O)(=O)Cc2ccc(Cl)cc2)cc1`: 861 s; for `O=C(NCc1cccs1)C1CCN(c2cnc3nccnc3c2)CC1`: 632 s.
With `Cc1ccc(NC(=O)N2CCCC(Cn3c(C4CC4)nc4cccnc43)C2)cc1C` (centres undefined), the RP-LC retention time turned out to be 694 s.
`COc1cc(NC(=O)CN2C(=O)CC(c3ccc(Cl)cc3)=Nc3cccnc32)cc(OC)c1`: the RP-LC retention time came out at 1000 s.
Under `Cc1ccc(Nc2nc(Cl)nc3ncn(C)c23)c(C)c1` stands 791 s; under `CCOc1ccc(-n2c(CN3CCN(C(=O)NC(C)CC)CC3)nc3cccnc32)cc1` (centres undefined), 650 s; under `CS(=O)(=O)c1ccc2nc(NC(=O)c3coc(NC(=O)c4cccs4)n3)sc2c1`, 685 s.
Molecule `Cc1cc(N2CCN(C)CC2)nc2ccc(NC(=O)Nc3ccc4c(c3)OCCO4)cc12` came in with an RP-LC retention time of 580 s.
The same measure for `COc1c(C(=O)NCCN2CCCCC2C)sc2cc(Cl)ccc12` (centres undefined): 710 s; for `COc1ccc(S(=O)(=O)N2CC(F)(F)C[C@H]2c2nc(C)no2)cc1`: 851 s.
`CCN(CC)c1ncc2c(n1)CCC(C(=O)NCc1ccc(C(C)C)cc1)C2` (centres undefined) returned an RP-LC retention time of 821 s.
Consider `CCCCn1c(=O)c2ccccc2n(Cc2nc(-c3cc(OC)c(OC)c(OC)c3)no2)c1=O`, for which the RP-LC retention time was determined as 1080 s.
Under `CCCn1cc(C(=O)NCCCN(C)C)c(S(=O)(=O)N2CCN(c3ccc(Cl)cc3)CC2)n1` stands 757 s; under `CCOc1ccc(-c2ccc(=O)n(CCc3nc(-c4cccc(F)c4)no3)n2)cc1`, 1040 s; under `Cc1ccc(CNC(=O)CN2C(=O)NC3(CCCCC3)C2=O)cc1`, 774 s.
The same measure for `CC1Oc2ccc(-c3csc(NC(=O)c4ccc(Br)cc4)n3)cc2NC1=O` (centres undefined): 990 s; for `CNC(=O)[C@@H]1CN(C(=O)CCc2cc(OC)no2)C[C@H]1c1nc(C)no1`: 620 s.
In turn, `CCCn1ncc(N2CCC(C(=O)N(C)Cc3cn(C)nc3C)CC2)cc1=O` registered an RP-LC retention time of 619 s.
Molecule `O=C(Nc1ccc(OC(F)(F)F)cc1)C(=O)Nc1ccccc1[N+](=O)[O-]` displayed an RP-LC retention time of 1090 s.
In the case of `Cc1nn(-c2ccc(F)cc2)c2nc(N3CCCC(C(=O)NCc4ccccc4Cl)C3)sc12` (centres undefined), the RP-LC retention time amounted to 1190 s.
Under `Cc1ccc(C)c(NC(=O)Cn2cnc3nc(N4CCCC(C(=O)NC(C)C)C4)sc3c2=O)c1` (centres undefined) stands 731 s; under `CCn1cnc2cc(-c3noc(C4CC(=O)N(c5ccc(C)c(C)c5)C4)n3)ccc21` (centres undefined), 734 s; under `COc1ccccc1-c1nnc(-c2ccc(OC)c(S(=O)(=O)N3CCCCC3)c2)o1`, 937 s.
The same measure for `CCCn1cc(CCNC(=O)Nc2cccc(Cl)c2)c2cccnc21`: 828 s.
Under `CCC1CN(C(=O)Nc2cccc(C(=O)OC)c2)c2ccccc2O1` (centres undefined) stands 1020 s; under `Cc1ccc(NC(=O)C(C)Oc2cc(C(F)(F)F)c3c(C)nn(C)c3n2)c(C)c1` (centres undefined), 920 s.
`O=C(Nc1cccc(Cl)c1)C1CCc2nc(N3CCOCC3)ncc2C1` (centres undefined) registered an RP-LC retention time of 838 s.
Under `CC1(C(=O)NCc2ccc(F)cc2)CCCN(C(=O)Nc2cccc(Br)c2)C1` (centres undefined) stands 1030 s; under `CC(COc1ccccc1)NC(C)C(O)c1ccc(O)cc1` (centres undefined), 686 s.
Under `Cc1ccc(-c2csc(-c3cc4c([nH]c3=O)CC(C)(C)CC4=O)n2)cc1` stands 994 s.
The same measure for `CC1CC(C)CN(S(=O)(=O)c2cccc(-c3cn4cc(Cl)ccc4n3)c2)C1` (centres undefined): 1090 s; for `N#Cc1cccc(C(=O)NC2CCN(c3cc(-c4ccc(F)cc4)[nH]n3)C2)c1` (centres undefined): 712 s.
Consider `CN(c1nccn2c(=O)n(CC(=O)Nc3ccccc3F)nc12)C1CCCCC1`, for which the RP-LC retention time was 748 s.
The same measure for `CC(=O)N1CCC(C(=O)NCc2c(-c3ccccc3)nc3sc(C)nn23)CC1`: 729 s.
The same measure for `O=C(CCNc1cnc2cnccn12)NCc1cccc(Cl)c1`: 590 s.
Under `COc1ccc(OC)c(S(=O)(=O)N2CCCC(C(=O)N3CCC(C(N)=O)CC3)C2)c1` (centres undefined) stands 635 s; under `Cc1cccc(OCC(=O)N2CCc3cc(-c4csc(C)n4)ccc32)c1`, 847 s; under `Cc1ccc(C(C)NC(=O)C2CCCN(c3cnc4nccnc4c3)C2)c(C)c1` (centres undefined), 809 s.
Take `Cc1ccc(C(=O)Nc2nccnc2C(=O)NCC2CCCO2)cc1` (centres undefined): the RP-LC retention time was 808 s.
As for `CN1C(=O)Cc2cc(NC(=O)c3ccno3)ccc21`, the RP-LC retention time was 586 s.
In turn, `O=C(CCc1c(-c2ccc(F)cc2)nc2ccccn12)Nc1cc(F)ccc1F` came in with an RP-LC retention time of 697 s.
The same measure for `Cc1ncoc1C(=O)N1CCC(c2noc(-c3ccncc3)n2)C1` (centres undefined): 642 s.
The same measure for `CSc1cccc(NC(=O)N(C)CC2CCOCC2)c1`: 743 s; for `CCCn1cc(CCNC(=O)c2ccc(F)cc2)c2cccnc21`: 732 s; for `CCC(=O)N1CCCC1COc1ccc(C(=O)N2CCCC2)cc1` (centres undefined): 712 s.
Under `CCN(CC)C(=O)Nc1ccc(C)c(Cl)c1` stands 827 s; under `Cc1c(CN2CC(F)(F)C[C@H]2COc2ccncc2)cnn1C`, 502 s; under `Cc1ccc(CNC(=O)c2cccc(C3CCCN(C(=O)NC(C)C)C3)c2)cc1C` (centres undefined), 952 s.
On to `CCn1cnc(S(=O)(=O)N2CCCC(C(=O)Nc3ccc(F)cc3F)C2)c1` (centres undefined), for which the RP-LC retention time was determined as 742 s.
The same measure for `CCc1ccc(CN(CC(=O)N2CCNCC2)C(=O)c2sccc2C)cc1`: 671 s.
Under `CCN1C(=O)COc2ccc(-c3noc(Cc4ccc(Cl)cc4)n3)cc21` stands 1100 s.
The same measure for `CCn1ccc2cc(S(=O)(=O)N3CCCC(C(=O)NCc4ccc(OC(C)C)cc4)C3)ccc21` (centres undefined): 1060 s.
In turn, `COc1ccc(-c2nc(CCNS(=O)(=O)c3ccc(Cl)s3)cs2)cc1OC` gave an RP-LC retention time of 918 s.
`CCn1cc(C)c(C(=O)O)c1CC(=O)N1CCN(C2CCCCC2)CC1` displayed an RP-LC retention time of 597 s.
As for `CCc1ccc(-c2nc(-c3ccc(-n4ccnc4)nc3)no2)cc1`, the RP-LC retention time was 882 s.
The molecule `O=C(Nc1nccs1)C1CC(=O)N(CCc2c[nH]c3ccc(Cl)cc23)C1` (centres undefined) registered an RP-LC retention time of 745 s.
The molecule `CC1CCN(S(=O)(=O)c2ccc3nc(N4CCN(c5ccc(F)cc5)CC4)ccc3c2)CC1` had an RP-LC retention time of 1190 s.
The same measure for `COC(=O)Nc1ccc(S(=O)(=O)N2CCCC(C(F)(F)F)C2)cc1` (centres undefined): 837 s; for `COC(=O)c1ccc(NC(=O)C(=O)NCCN2CCN(c3ccccc3OC)CC2)cc1`: 581 s; for `CN(CCc1noc(-c2ccc(C(=O)NC3CCCC3)cc2)n1)C(=O)c1ccccc1F`: 839 s.
Consider `CSc1ccc(-c2nc3ncccn3c2Nc2ccc(C)cc2C)cc1`, for which the RP-LC retention time worked out at 898 s.
Under `CCOc1ccc(-c2csc(Nc3ccccn3)n2)cc1` stands 910 s.
